The test system of experiment [1] is Dct/Trp2 promoter. Put plainly: Transient CAT assay, Dct/Trp2 proximal promoter-CAT construct in WM 266-4. The experiment is classed as cell-based, human. The conditions noted are these: CPP concentration 10 μM. The procedure: (§1) SOX10 and MITF interact with the proximal promoter of Dct/Trp2 gene and induces its activity (Ludwig A. et al., FEBS Lett. 556 (1-3):236-244 (2004)). Thus, a Dct/Trp2 proximal promoter reporter construct was used to analyze effect of mimicking peptides on promoter activity using transient CAT assay.
(§2) Methods. Human melanoma cell lines SK-MEL-28 and WM 266-4 were obtained from the American Tissue Culture Collection (ATCC) and were cultured according to recommendations of ATCC (DMEM, 10% FCS, penicillin+streptomycin). Dct/Trp2 proximal promoter-CAT construct (Ludwig et al., supra) was used in all experiments.
(§3) Cells were transfected by using FuGene reagent (Roche Molecular Biochemicals) according to manufacturer's instructions. Freeze-thaw lysates of cells collected 48 h after the transfection were assayed for CAT activity as described (Pothier, F. et al., DNA Cell Biol. 11(1):83-90 (1992)). At least two different DNA preparations were tested for each plasmid. To normalize the transfection efficiencies, cells were cotransfected with pON260 expressing β-galactosidase (Spaete, R. R. and Mocarski, E. S., J. Virol. 54(3):817-24 (1985); Spaete, R. R. and Mocarski, E. S., J. Virol. 56(1):13543 (1985)). All the CAT activities were normalized to total protein and β-galatosidase activity.
(§4) Following transfection, cells were grown in 6 well plates, each treatment in triplicates. Peptides were added to the media and media was changed every day during the 7 day experiment. CPP concentration was 10 μM.

For experiment [2], the system named is B16. Put plainly: WST-1 test (mitochondrial activity). The conditions noted are these: CPP mimicking peptides, conc 10 µM, untreated = 1. The experiment is classed as cell-based, mouse. The procedure: Methods. Human melanoma cell lines SK-MEL-28 and WM 2664 and mouse melanoma cell line B16 were obtained from the American Tissue Culture Collection (ATCC). Cells were cultured according to recommendations of ATCC (DMEM, 10% FCS, penicillin+streptomycin) and used in experiments after two passages in the laboratory. Cells were grown in 24 well plates, each treatment in triplicates. Cells were plated 16 hours prior treatments started. Peptides were added to the media, and media was changed every day during 7 day experiment. […]
(Tetrazolium dyes change colour on reduction, which living cells bring about.)

Experiment [3] has as its system SK-MEL-28. Put plainly: WST-1 test (mitochondrial activity). In kind it is cell-based, human. The conditions noted are these: CPP mimicking peptides, conc 10 µM, untreated = 1.
Experiment [4] deals with Dct/Trp2 promoter. Put plainly: Transient CAT assay, Dct/Trp2 proximal promoter-CAT construct in SK-MEL-28. The conditions noted are these: CPP concentration 10 μM. In kind it is cell-based, human. The procedure: as §1, §2, §3, §4
Experiment [5] relates to SK-MEL-28. Put plainly: Cell counting after 7 day peptide treatment. The experiment is classed as cell-based, human. The conditions noted are these: CPP mimicking peptides, conc 10 µM, start count 10. How it is done: (§5) The ability to block interaction of MITF, SOX10 and STAT3 with active transcriptional complex and inhibit proliferation and stimulate apoptosis of melanoma cells were tested on human melanoma cell lines SK-MEL-28 and WM 266-4, and mouse melanoma cell line B16. Methods. Human melanoma cell lines SK-MEL-28 and WM 2664 and mouse melanoma cell line B16 were obtained from the American Tissue Culture Collection (ATCC). Cells were cultured according to recommendations of ATCC (DMEM, 10% FCS, penicillin+streptomycin) and used in experiments after two passages in the laboratory. Cells were grown in 24 well plates, each treatment in triplicates. Cells were plated 16 hours prior treatments started. Peptides were added to the media, and media was changed every day during 7 day experiment. CPP concentration was 10 μM For cell counting, cells were trypsinized (0.25% Trypsin, 2 mM EDTA) in Ca^+2, Mg^+2 free PBS. Cells were precipitated and resuspended in 100 μl of PBS, and 5 μl were removed for counting Methods. Human melanoma cell lines SK-MEL-28 and WM 266-4 were obtained from the American Tissue Culture Collection (ATCC) and were cultured according to recommendations of ATCC (DMEM, 10% FCS, penicillin+streptomycin). Human keratinocytes were obtained from Clonetics and cultured according to manufacturers protocol. Cells were used in experiments after two passages in the laboratory. Cells were grown in 24 well plates, each treatment in triplicates. Cells were plated 16 hours prior treatments started. Peptides were added to the media, and media was changed every day during 7 day experiment. CPP concentration was 10 μM. For cell counting, cells were trypsinized (0.25% Trypsin, 2 mM EDTA) in Ca, Mg free PBS. Cells were precipitated and resuspended in 100 μl of PBS, and 5 μl were removed for counting.

In experiment [6] the test system is WM 266-4. The experiment is described as follows: WST-1 test (mitochondrial activity). In kind it is cell-based, human. The conditions noted are these: CPP mimicking peptides, conc 10 µM, untreated = 1. How it is done: Methods. Human melanoma cell lines SK-MEL-28 and WM 2664 and mouse melanoma cell line B16 were obtained from the American Tissue Culture Collection (ATCC). Cells were cultured according to recommendations of ATCC (DMEM, 10% FCS, penicillin+streptomycin) and used in experiments after two passages in the laboratory. Cells were grown in 24 well plates, each treatment in triplicates. Cells were plated 16 hours prior treatments started. Peptides were added to the media, and media was changed every day during 7 day experiment. […] Methods. Human melanoma cell lines SK-MEL-28 and WM 266-4 were obtained from the American Tissue Culture Collection (ATCC) and were cultured according to recommendations of ATCC (DMEM, 10% FCS, penicillin+streptomycin). Human keratinocytes were obtained from Clonetics and cultured according to manufacturers protocol. Cells were used in experiments after two passages in the laboratory. Cells were grown in 24 well plates, each treatment in triplicates. Cells were plated 16 hours prior treatments started. Peptides were added to the media, and media was changed every day during 7 day experiment. […] WST-1 test was performed to measure mitochondrial activity, which can also be used as a measure of cell number.

The subject of experiment [7] is WM 266-4. Put plainly: Cell counting after 7 day peptide treatment. In kind it is cell-based, human. The conditions noted are these: CPP mimicking peptides, conc 10 µM, start count 10. How it is done:
as §5, with “CPP concentration was 10 μM For cell counting, cells were trypsinized (0.25% Trypsin, 2 mM EDTA) in Ca^+2, Mg^+2 free PBS.” left out, “CPP concentration was 10 μM.” left out

The test system of experiment [8] is B16. The experiment is described as follows: Cell counting after 7 day peptide treatment. The experiment is classed as cell-based, mouse. The conditions noted are these: CPP mimicking peptides, conc 10 µM, start count 10. How it is done:
The ability to block interaction of MITF, SOX10 and STAT3 with active transcriptional complex and inhibit proliferation and stimulate apoptosis of melanoma cells were tested on human melanoma cell lines SK-MEL-28 and WM 266-4, and mouse melanoma cell line B16. Methods. Human melanoma cell lines SK-MEL-28 and WM 2664 and mouse melanoma cell line B16 were obtained from the American Tissue Culture Collection (ATCC). Cells were cultured according to recommendations of ATCC (DMEM, 10% FCS, penicillin+streptomycin) and used in experiments after two passages in the laboratory. Cells were grown in 24 well plates, each treatment in triplicates. Cells were plated 16 hours prior treatments started. Peptides were added to the media, and media was changed every day during 7 day experiment. […] Cells were precipitated and resuspended in 100 μl of PBS, and 5 μl were removed for counting

This is an account of results in US20060014712A1, “Controlled delivery of therapeutic compounds” (CeMines, Inc., priority 2004, published 2006).

On to “RPKKRKVRRRQLMLEPYALDMSRIRVLSESLGLATQSG [Scr-int1, reference compound]”, for which the “Dct/Trp2 promoter activity (CAT assay)” value in experiment [1] and in experiment [4] was “do not have significant effect” in each case. Further, the “WST-1 7 d” value in experiment [2] was 1.1; in experiment [3] it was 1; in experiment [6], 1. Moreover, the figures for the “Cell Count 7 d” value in experiment [5], in experiment [7] and in experiment [8] were 53, 41 and 83, respectively.
